Reference: US5095037A, “Combined anti-inflammatory agent” (Nissho Corporation, priority 1989, dated 1992)

Key:
[1] = tested on: carrageenan-induced edema; experiment: Test Example 1: inhibitory effect on carrageenan-induced edema, foot pad, agent 6 h before carrageenan (Table 2); assay type: in vivo, Wister male rats
Protocol: The inhibitory effect on carrageenan-induced edema was investigated as to combined agents of sodium hyaluronate (molecular weight: 8 ×10^5) and various anti-inflammatory agents.
Wister male rats weighing 240 to 260 g (6 weeks old) were preliminarily bred for not less than 1 week. Eight rats were used in one group. Each test agent shown in Table 2 was dissolved or suspended in an isotonic phosphate buffer solution (pH 7.0) to give a 1% solution or suspension (hereinafter referred to as "1% solution"). The solution was administered subcutaneously into the right foot pad of each rat. Six hours after the administration, a 1% solution of carrageenan was administered subcutaneously as an irritating agent into the right foot pad of the rat in a dose of 0.1 ml/animal. The volume of the right foot pad was measured before and 4 hours after the administration of carrageenan. The rate of edema inhibition (hereinafter referred to as "inhibitory rate") by each test agent was calculated from the obtained measurements and thus the inhibitory effect on edema was evaluated.
(§1) The rate of inhibition (%) of the edema of the foot pad of each rat was calculated according to the following formula (III). [formula] MCEV: Average swollen rate of the foot pad 4 hours after the administration of carrageenan in the control group
(§2) MTEV: Average swollen rate of the foot pad 4 hours after the administration of carrageenan in the drug-given group [formula] CEV: Volume of foot pad of each rat before the administration of carrageenan
(§3) TEV: Volume of foot pad of each rat 4 hours after the administration of carrageenan
(§4) With respect to each agent, the evaluation of the inhibitory effect on edema was carried out according to the following criteria: Synergistic effect was observed:
(§5) Very great HA % + DG % ≤ ED %
(§6) Great TD % ≤ ED % < HA % + DG %
(§7) Small MD % < ED % < TD %
(§8) No synergistic effect was observed:
(§9) HA % : Inhibitory rate by the administration of sodium hyaluronate alone
(§10) DG % : Inhibitory rate by the administration of the anti-inflammatory agent alone
(§11) ED % : Inhibitory rate by the administration of the combined agent
(§12) MD % : {The greater one between HA % and DG %} × 1.2
(§13) TD % : HA % + DG % (1--HA %/100)

[2] = tested on: carrageenan-induced edema; experiment: Test Example 4: inhibitory effect on carrageenan-induced edema, various acid anti-inflammatory agents (Table 5); assay type: in vivo, Wister male rats; conditions: dose 4 mg/kg, single agent
Protocol: (§14) The measurement of the volume was carried out according to the method of Fujimura et al. (see Iyakuhin Kaihatsu Kisokoza, Vol. 6, "Yakubutsu no Hyoka (1)" editted by Tsuda and Nogami, p 239-282, Kabushiki Kaisha Chizin-sha, 1971).
as §1, §2, §3, §4, §5, §6, §7, §8, §9, §10, §11, §12, §13
The inhibitory effect on carrageenan-induced edema was investigated with respect to combined agents of sodium hyaluronate (molecular weight: 8 × 10^5) and various acid anti-inflammatory agents.
(§15) Wister male rats weighing 240 to 255 (6 weeks old) were preliminarily bred for not less than 1 week. Eight rats were used in one group. A 1% solution of each test agent shown in Table 5 was administered subcutaneously into the right foot pad of each rat. Six hours after the administration, a 1% solution of carrageenen was administered subcutaneously as an irritating agent into the right foot pad of each rat in a dose of 0.1 ml/animal. The volume of the right foot pad was measured before and 4 hours after the administration of carrageenen. Then, the inhibitory effect on edema was evaluated in the same way as in Test Example 1.

[3] = tested on: carrageenan-induced edema; experiment: Test Example 6: prolonged inhibitory effect on carrageenan-induced edema, agent 16 h before carrageenan (Table 7); assay type: in vivo, Wister male rats
Protocol: as §14, §1, §2, §3, §4, §5, §6, §7, §8, §9, §10, §11, §12, §13
as §15, with “240 to 260 g (6 weeks” for “240 to 255 (6 weeks”, “in Table 7 was administered” for “in Table 5 was administered”, “each rat. Sixteen hours after” for “each rat. Six hours after”, “solution of carrageenan was administered” for “solution of carrageenen was administered”

[4] = tested on: movable range of joint (right knee); experiment: Test Example 7: inhibition of the damage to the movable range of joint, fixed right knee (Table 8); assay type: in vivo, Rabbits (New Zealand White); conditions: articular cavity; for curative effect (in words): Table 8; for Inhibitory rate (damage to the movable range of joint): dose 3.0 mg/kg, once per three days, one month, single agent
Protocol: Rabbits (New Zealand White) weighing about 2 kg were preliminarily bred for not less than one week and healthy ones were selected (3 rabbits per group). The joint of right knee of each rabbit was fixed by applying a splint thereto and further completely fixed not so as to move by putting it in plaster. Then the rabbits were bred normally for one month.
During the normal breading, a 1% solution of each test agent shown in Table 8 was administered using an injection needle of gauge No. 27 into the articular cavity of each rabbit except those of the control group in a dose of 0.3 ml/kg body weight once per three days.
One day after the last administration, the splint and the plaster were removed and the movable range of the joint was measured with a protractor under anesthesia with Nembutal (trademark). The rate of inhibition of the damage to the movable range of joint with respect to each test agent was calculated from the obtained measurements and the curative effect was evaluated.
The rate of inhibition of the damage to the movable range of joint was calculated according to the following formula (IV), and the evaluation of synergistic effect was conducted under the same condition as in Test Example 1. [formula] MCJV: Average movable range of joint with respect to the rabbits of the […] group
MTJV: Average movable range of joint with respect to the rabbits of the […] group

[5] = tested on: carrageenan-induced edema; experiment: Test Example 2: inhibitory effect on carrageenan-induced edema, sodium hyaluronates of different molecular weights (Table 3); assay type: in vivo, Wister male rats; conditions: dose 4.0 mg/kg
Protocol: as §14, §1, §2, §3
The inhibitory effect on carrageenan-induced edema was investigated as to combined agents of various grades of sodium hyaluronates having different molecular weights with diclofenac sodium.
Wister male rats weighing 230 to 265 g (6 weeks old) were preliminarily bred for not less than 1 week. Eight rats were used in one group. A 1% solution of each test agent shown in Table 3 was administered subcutaneously into the right foot pad of each rat. Six hours after the administration, a 1% solution of carrageenan was administered subcutaneously as an irritating agent into the right foot pad of the rat in a dose of 0.1 ml/animal. The volume of the right foot pad was measured before and 4 hours after the administration of carrageenan. Then the inhibitory effect on edema was evaluated in the same way as in Test Example 1.

[6] = tested on: carrageenan-induced edema; experiment: Test Example 3: inhibitory effect on carrageenan-induced edema, varied ratio of diclofenac sodium to sodium hyaluronate (Table 4); assay type: in vivo, Wister male rats; conditions: dose 4 mg/kg; HA molecular weight 8 × 10^5
Protocol: as §14, §1, §2, §3
The inhibitory effect on carrageenan-induced edema was investigated with respect to combined agents of sodium hyaluronate (molecular weight: 8 × 10^5) and diclofenac sodium wherein the ratio of diclofenac sodium to sodium hyaluronate varied.
Wister male rats weighing 235 to 260 g (6 weeks old) were preliminarily bred for not less than 1 week. Eight rats were used in one group. […] The volume of the right foot pad was measured before and 4 hours after the administration of carrageenen. Then, the inhibitory effect on edema was evaluated in the same way as in Test Example 1.

[7] = tested on: ICR mice; experiment: Test Example 5: toxicity, number of dead mice 72 hours after subcutaneous administration (Table 6); assay type: in vivo; conditions: dose 40 mg/kg s.c., 5 mice per group
Protocol: After preliminary breeding of mail ICR mice 5 weeks old weighing 23 to 28 g (5 mice per one group) for one week, a 1% solution of each test agent shown in Table 6 wa subcutaneously administered to the mice. The number of dead mice was counted 72 hours after the administration.
The doses of the test agent used in this test were about ten times those used in Test Example 1.
The molecular weight of sodium hyaluronate is 8 × 10^5. The
doses in Table 6 mean the amounts (mg) administered per kg body weight.
The dose values, to which the mark "+" is attached, as to the combined
agents means the amounts of antiinflammatory agent added to 40 mg/kg of
sodium hyaluronate (HA).

[8] = dose 4.0 mg/kg, s.c. foot pad, single agent, 4 h after carrageenan

Compound: CCCCC1C(=O)N(c2ccccc2)N(c2ccccc2)C1=O [Phenylbutazon, Phenylbutazone]
- Inhibitory rate (edema) [1, 8]: 46.1%

Compound: Cc1ccc(C(=O)c2ccc(CC(=O)O)n2C)cc1 [Tolmetin]
- Inhibitory rate (edema) [2]: 25.1%

Compound: CC(C)Cc1ccc(C(C)C(=O)O)cc1 (stereo not drawn) [Ibuprofen]
- Inhibitory rate (edema) [1, 8]: 18.2%

Compound: COc1ccc2c(c1)c(CC(=O)O)c(C)n2C(=O)c1ccc(Cl)cc1 [Indometacin]
- Inhibitory rate (edema) ([1]; dose 1.2 mg/kg, s.c. foot pad, single agent, 4 h after carrageenan): 12.9%
- Inhibitory rate (edema) ([3]; dose 3.0 mg/kg): 20%

Compound: Cc1cccc(Nc2ccccc2C(=O)O)c1C [Mefenamic acid]
- Inhibitory rate (edema) [2]: 34.2%

Compound: C=CCOc1ccc(CC(=O)O)cc1Cl [Alclofenac]
- Inhibitory rate (edema) [2]: 22.9%

Compound: O=C(O)Cc1ccccc1Nc1c(Cl)cccc1Cl [Diclofenac sodium]
- Inhibitory rate (edema) [1, 8]: 16.9%
- Inhibitory rate (edema) ([3]; dose 3.0 mg/kg): 9.7%
- curative effect (in words) [4]: some curative effect
- Inhibitory rate (damage to the movable range of joint) [4]: 17.3%

Compound: CC(=O)Oc1ccccc1C(=O)O [Aspirin]
- Inhibitory rate (edema) [2]: 14.6%

Compound: Sodium hyaluronate [Sodium hyaluronate (HA)]
- Inhibitory rate (edema) [1, 8]: 23.5%
- Inhibitory rate (edema) ([5]; molecular weight of HA 28 × 10^4): -36.4%
- Inhibitory rate (edema) ([5]; molecular weight of HA 58 × 10^4): 17.9%
- Inhibitory rate (edema) ([5]; molecular weight of HA 80 × 10^4): 29.9%
- Inhibitory rate (edema) ([5]; molecular weight of HA 210 × 10^4): 43.2%
- Inhibitory rate (edema) [6]: 25.9%
- Inhibitory rate (edema) [2]: 23.9%
- Number of dead mice [7]: 0
- Inhibitory rate (edema) ([3]; dose 4.0 mg/kg): 30.0%
- curative effect (in words) [4]: some curative effect
- Inhibitory rate (damage to the movable range of joint) [4]: 24.5%

Compound: CC(C(=O)O)c1ccc2c(c1)Cc1cccnc1O2 (stereo not drawn) [Pranoprofen]
- Inhibitory rate (edema) [2]: 39.0%

Compound: CN1C(C(=O)Nc2ccccn2)=C(O)c2ccccc2S1(=O)=O [Piroxicam]
- Inhibitory rate (edema) [1, 8]: 34.6%

Compound: O=C([O-])c1ccccc1O.[Na+] [Sodium salicylate]
- Inhibitory rate (edema) ([1]; rat, in vivo, sc, 50 mg/kg): 46.6%

Compound: C[C@]12C=CC(=O)C=C1CC[C@@H]1[C@@H]2[C@@H](O)C[C@@]2(C)[C@H]1CC[C@]2(O)C(=O)CO [Prednisolone]
- Inhibitory rate (edema) ([1]; dose 0.5 mg/kg, s.c. foot pad, single agent, 4 h after carrageenan): 21.7%
